For this data set, the system named is HH cells (CTCL cells; ATCC). The data set is described as follows: ViaLight Plus viability/proliferation assay, Vorinostat and Targretin combination. Type of data set: cell-based. As for the experimental part: Data from these assays was used to determine the range of combination concentrations. Both compounds were combined at concentrations close to their IC50 values. Subsequent combination viability/proliferation assays were performed using the ViaLight Plus protocol.
Costar white with clear bottom 96 well plates (#3603) were seeded with 25,000 cells per well in a volume of 100 μL/well of growth media for each time point. HH cell line growth media included RPMI (GIBCO #) with 10% FBS (GIBCO # SV30014.03), 1% Glutamax (GIBCO # 35050-061), and 1% Penicillin/Streptomycin (GIBCO # 30-002). […] For the fixed ratio method, compounds were combined and diluted together serially. […] For each treatment concentration, 25 μL of the appropriate dilution for each compound was added to the corresponding wells. Wells on the outer perimeter of the plate were not used. At each time-point, plates were read using the ViaLight Plus protocol. Luminescence was read using the Victor V plate reader.

The results in this text go back to patent publication US20090227674A1, “Combination methods fo saha and targretin for treating cancer” (priority 2005, published 2009).

Consider `O=C(CCCCCCC(=O)Nc1ccccc1)NO` [Vorinostat, N-Hydroxy-N′-phenyl octanediamide], for which, where the note is “Homo sapiens, HH, read-out: decrease in cell viability”, the cytotoxicity at 0.37 µM is around 40%.
For the molecule `C=C(c1ccc(C(=O)O)cc1)c1cc2c(cc1C)C(C)(C)CCC2(C)C` [Targretin®, 4-[1-(5,6,7,8-Tetrahydro-3,5,5,8,8-pentamethyl-2-naphthalenyl)ethenyl]benzoic acid], the decrease in viability (HH cell line, 0.60 μM Targretin alone (FIG. 1A)) is on record as around 40%.
